Source: PubChem BioAssay (NCI)
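Values below derive from 48-hour exposures of cells grown in 96-well plates, with endpoints linearly interpolated between the two concentrations bracketing the appropriate inhibition level. The concentration for 50% growth inhibition is given as GI50. TGI denotes the concentration required for complete inhibition of growth.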

Experiments:
Assay in all cases: inhibition of tumour cell growth, NCI panel, 48 h
COLO 205 colon = test system: COLO 205 colon
HCC-2998 colon = test system: HCC-2998 colon
HS 578T breast = test system: HS 578T breast
IGROV1 ovarian = test system: IGROV1 ovarian
K-562 leukemia = test system: K-562 leukemia
NCI/ADR-RES ovarian = test system: NCI/ADR-RES ovarian
SF-295 CNS = test system: SF-295 CNS
SW-620 colon = test system: SW-620 colon
T-47D breast = test system: T-47D breast
TK-10 renal = test system: TK-10 renal

Row | Structure (SMILES) | GI50 (COLO 205 colon) | TGI (COLO 205 colon) | GI50 (HCC-2998 colon) | TGI (HCC-2998 colon) | GI50 (HS 578T breast) | TGI (HS 578T breast) | GI50 (IGROV1 ovarian) | TGI (IGROV1 ovarian) | GI50 (K-562 leukemia) | TGI (K-562 leukemia) | GI50 (NCI/ADR-RES ovarian) | TGI (NCI/ADR-RES ovarian) | GI50 (SF-295 CNS) | TGI (SF-295 CNS) | GI50 (SW-620 colon) | TGI (SW-620 colon) | GI50 (T-47D breast) | TGI (T-47D breast) | GI50 (TK-10 renal) | TGI (TK-10 renal)
1 | CN1CCN(c2ccc3nc4c(nc3c2C(F)(F)F)C(=O)c2ncccc2C4=O)CC1 | 1.45 µM | 3.29 µM | 1.21 µM | 2.63 µM | 1.91 µM | 5.38 µM | 1.41 µM | 3.07 µM | 1.43 µM | 7.75 µM | 2.33 µM | 6.94 µM | 1.27 µM | 2.58 µM | 1.42 µM | 3.52 µM | 1.96 µM | 4.62 µM | 2.21 µM | 5.3 µM
2 | Brc1ccc(Br)nn1 | 2.12 µM | 3.77 µM | 1.98 µM | 4.94 µM | 1.75 µM | 28.1 µM | 2 µM | 4.92 µM | 2.17 µM | 10.3 µM | 2 µM | 5.78 µM | 5.38 µM | 18.6 µM | 1.66 µM | 6.54 µM | 1.36 µM | 3.77 µM | 2.56 µM | 6.37 µM
3 | COc1cc(/C=C/C(=O)c2ccc(Nc3nc(Nc4ccccc4)nc(Nc4ccc(Cl)cc4)n3)cc2)cc(OC)c1OC | 8.55 µM | > 32.5 µM | > 32.5 µM | > 32.5 µM | 15.2 µM | > 32.5 µM | 8.17 µM | > 32.5 µM | 4.18 µM | > 32.5 µM | 31.5 µM | > 32.5 µM | 7.22 µM | > 32.5 µM | 8.46 µM | > 32.5 µM | 3.03 µM | > 32.5 µM | 19.1 µM | > 32.5 µM
4 | C[C@@H]1CN2[C@H]3[C@@H]1CC[C@]31CCC(=O)O[C@]1(C)[C@@H]1CC[C@H]3CCC=C3[C@@H]12 | > 70 µM | > 70 µM | > 70 µM | > 70 µM | > 70 µM | > 70 µM | > 70 µM | > 70 µM | > 70 µM | > 70 µM | > 70 µM | > 70 µM | > 70 µM | > 70 µM | > 70 µM | > 70 µM | > 70 µM | > 70 µM | > 70 µM | > 70 µM
5 | C=C1CO[C@@H]2C[C@@H]1CC/C(C)=C/CC/C(C)=C/CC[C@@]2(C)O | 27.3 µM | > 60.9 µM | 18.3 µM | 36.4 µM | 25.7 µM | > 83.4 µM | 3.96 µM | 28.8 µM | 15.1 µM | > 46.2 µM | 18.5 µM | 36 µM | 19.6 µM | 41.7 µM | 22.2 µM | 45.9 µM | 18.3 µM | 42.8 µM | 18.4 µM | 36.2 µM
6 | CNCCOc1nc2c3cnccc3cc(-c3cc(OC)c(OC)c(OC)c3)c2c2ccncc12 | 0.0575 µM | 0.698 µM | 0.0454 µM | 0.213 µM | 0.139 µM | 0.747 µM | 0.0281 µM | 0.357 µM | 0.0294 µM | 10.1 µM | 0.344 µM | 2.09 µM | 0.0211 µM | 0.101 µM | 0.0243 µM | 1.7 µM | 0.0296 µM | 0.48 µM | 0.0686 µM | 0.366 µM
7 | COc1cc2c3c(c1O)C1(C=CC(=O)C=C1)CC3N(C)CC2 (stereo not given) |  | 18.2 µM |  | 24.8 µM |  | > 100 µM |  | 25.4 µM |  | > 100 µM |  | 11 µM |  | 24.3 µM |  | 18.3 µM |  | 26.2 µM |  | 41.7 µM
